Experimental data from patent publication US12012417B2, “N-substituted tetrahydrothienopyridine derivatives and uses thereof” (NOVARTIS AG, priority 2018, dated 2024).
Counter-ions that a name gives are not always drawn. Like-named read-outs stand apart in the source and are kept apart here.

Legend:
[1] = system: Dengue 1 virus MY97-10245; experiment: High-content imaging cell-based flavivirus immunodetection (HCl-CFI) assay, Dengue 1; details: for EC50: Dengue virus, A549, 48 h, read-out: Dengue 1 virus MY97-10245 in A549 using HCl [Inhibitor/IC50] Qualified AC50
[2] = system: Dengue 3 virus MY05-34640-WT-C6/36; experiment: High-content imaging cell-based flavivirus immunodetection (HCl-CFI) assay, Dengue 3; details: for EC50: Dengue virus, A549, 48 h, read-out: Dengue 3 virus MY05-34640-WT-C6/36 in A549 using HCl [Inhibitor/IC50] Qualified AC50
[3] = system: Dengue 4 virus MY01-22713; experiment: High-content imaging cell-based flavivirus immunodetection (HCl-CFI) assay, Dengue 4; details: for EC50: Dengue virus, A549, 48 h
[4] = system: Dengue 2 virus MY97-10340; experiment: High-content imaging cell-based flavivirus immunodetection (HCl-CFI) assay, Dengue 2; details: for EC50: Dengue virus, A549, 48 h
Method: High-Content Imaging Cell-Based Flavivirus Immunodetection (HCl-CFI) Assay
A549 cells (7×10^3 cells per well) in a 384-well plate were infected with the DENV-2 (MY97-10340) strain at an MOI of 0.3. The cells were then treated with 3-fold, 10-point serial dilutions of test compound. After 48 h, the cells were fixed with paraformadehyde, and the viral E protein detected with 4G2 antibody labeled with Dylight™ 488 (GenScript). Cell nuclei were stained with Draq5 (Pierce/Thermo), and images were taken on the Opera imaging system (Perkin Elmer). A dose-response curve was plotted to calculate the effective concentration of compound needed to reduce expression of E protein by 50% (EC50) using GraphPad Prism.
The resulted EC50 values are summarized in Table 1 below: ±≥1 μM; 1 μM>++≥0.1 μM; 0.1 μm>+++

[5] = read-out: Dengue 4 virus MY01-22713 in A549 using HCl [Inhibitor/IC50] Qualified AC50, A549 cells, 48 h, viral E protein expression
[6] = read-out: Dengue 2 virus MY97-10340 in A549 using HCl [Inhibitor/IC50] Qualified AC50, A549 cells, MOI 0.3, 48 h, viral E protein expression
[7] = A549 cells, 48 h, viral E protein expression

Compound	EC50 [1] [nM]	EC50 [2] [nM]	EC50 [3, 5] [nM]	EC50 [4, 6] [nM]	Dengue 1 virus MY97-10245 in A549 using HCl [Inhibitor/IC50] Qualified AC50 [1, 7]	Dengue 3 virus MY05-34640-WT-C6/36 in A549 using HCl [Inhibitor/IC50] Qualified AC50 [2, 7]	Dengue 4 virus MY01-22713 in A549 using HCl [Inhibitor/IC50] Qualified AC50 [3, 7]	Dengue 2 virus MY97-10340 in A549 using HCl [Inhibitor/IC50] Qualified AC50 ([4]; A549 cells, MOI 0.3, 48 h, viral E protein expression)	EC50 ([3]; read-out: Dengue 4 virus MY01-22713 in A549 using HCl [Inhibitor/IC50] Qualified AC50) [nM]	EC50 ([4]; read-out: Dengue 2 virus MY97-10340 in A549 using HCl [Inhibitor/IC50] Qualified AC50) [nM]
Cc1cccc(CN2CCc3c(sc(NC(=O)Cc4ccc(S(N)(=O)=O)cc4)c3C#N)C2)c1F [Example 115, N-(3-cyano-6-(2-fluoro-3-methylbenzyl)-4,5,6,7-tetrahydrothieno[2,3-c]pyridin-2-yl)-2-(4-sulfamoylphenyl)acetamide]	100 to 1000	< 100	< 100	< 100						
N#Cc1c(NC(=O)Cc2ccc3c(c2)CNC3)sc2c1CN(CC1CCCCC1)CC2 [Example 20, N-(3-cyano-5-(cyclohexylmethyl)-4,5,6,7-tetrahydrothieno[3,2-c]pyridin-2-yl)-2-(isoindolin-5-yl)acetamide]	> 1000	> 1000	> 1000	100 to 1000						
CS(=O)(=O)c1ccc(CC(=O)Nc2sc3c(c2C#N)CCN(Cc2cc(Cl)ccc2Cl)C3)cc1 [Example 121, N-(3-cyano-6-(2,5-dichlorobenzyl)-4,5,6,7-tetrahydrothieno[2,3-c]pyridin-2-yl)-2-(4-(methylsulfonyl)phenyl)acetamide]	> 1000	> 1000	100 to 1000	100 to 1000						
CC1Cc2c(sc(NC(=O)Cc3ccc(S(N)(=O)=O)cc3)c2C#N)CN1Cc1cccc(F)c1 (stereo not drawn) [Example 123, N-(3-cyano-6-(3-fluorobenzyl)-5-methyl-4,5,6,7-tetrahydrothieno[2,3-c]pyridin-2-yl)-2-(4-sulfamoylphenyl)acetamide]					+ (±≥1 μM)	++ (1 μM>++≥0.1 μM)	++ (1 μM>++≥0.1 μM)	++ (1 μM>++≥0.1 μM)		
Cc1ccc(CN2CCc3c(sc(NC(=O)Cc4ccc(S(N)(=O)=O)cc4)c3C#N)C2)cc1 [Example 98, N-(3-cyano-6-(4-methylbenzyl)-4,5,6,7-tetrahydrothieno[2,3-c]pyridin-2-yl)-2-(4-sulfamoylphenyl)acetamide]	> 1000	100 to 1000	100 to 1000	100 to 1000						
COP(C)(=O)c1ccc(CC(=O)Nc2sc3c(c2C#N)CN(Cc2cccc(F)c2)CC3)cc1 (stereo not drawn) [Example 44, Methyl (4-(2-((3-cyano-5-(3-fluorobenzyl)-4,5,6,7-tetrahydrothieno[3,2-c]pyridin-2-yl)amino)-2-oxoethyl)phenyl)(methyl)phosphinate]	> 1000	100 to 1000							100 to 1000	100 to 1000
CC1Cc2sc(NC(=O)Cc3ccc(S(N)(=O)=O)cc3)c(C#N)c2CN1CC1CCCCC1 (stereo not drawn) [Example 62, N-(3-cyano-5-(cyclohexylmethyl)-6-methyl-4,5,6,7-tetrahydrothieno[3,2-c]pyridin-2-yl)-2-(4-sulfamoylphenyl)acetamide]	100 to 1000	< 100	< 100	< 100						
COc1cc(CC(=O)Nc2sc3c(c2C#N)CN(CC2CCCCC2)CC3)ccc1S(C)(=O)=O [Example 10, N-(3-cyano-5-(cyclohexylmethyl)-4,5,6,7-tetrahydrothieno[3,2-c]pyridin-2-yl)-2-(3-methoxy-4-(methylsulfonyl)phenyl)acetamide]	100 to 1000	< 100	< 100	< 100						
COc1ccccc1CN1CCc2c(sc(NC(=O)Cc3ccc(S(N)(=O)=O)cc3)c2C#N)C1 [Example 94, N-(3-cyano-6-(2-methoxybenzyl)-4,5,6,7-tetrahydrothieno[2,3-c]pyridin-2-yl)-2-(4-sulfamoylphenyl) acetamide]	> 1000	100 to 1000	100 to 1000	> 1000						
Cn1cc(S(N)(=O)=O)cc1CC(=O)Nc1sc2c(c1C#N)CN(CC1CCCCC1)CC2 [Example 88, N-(3-cyano-5-(cyclohexylmethyl)-4,5,6,7-tetrahydrothieno[3,2-c]pyridin-2-yl)-2-(1-methyl-4-sulfamoyl-1H-pyrrol-2-yl)acetamide]	100 to 1000	< 100	< 100	< 100						
CCOc1cc(CC(=O)Nc2sc3c(c2C#N)CN(Cc2cccc(F)c2)CC3)ccc1S(C)(=O)=O [Example 37, N-(3-cyano-5-(3-fluorobenzyl)-4,5,6,7-tetrahydrothieno[3,2-c]pyridin-2-yl)-2-(3-ethoxy-4-(methylsulfonyl)phenyl)acetamide]	100 to 1000	< 100	< 100	< 100						
COc1cccc(CC(=O)Nc2sc3c(c2C#N)CN(Cc2cccc(F)c2)CC3)c1OC [Example 34, N-(3-cyano-5-(3-fluorobenzyl)-4,5,6,7-tetrahydrothieno[3,2-c]pyridin-2-yl)-2-(2,3-dimethoxyphenyl)acetamide]	> 1000	100 to 1000	100 to 1000	> 1000						
N#Cc1c(NC(=O)Cc2ccc(S(N)(=O)=O)s2)sc2c1CN(CC1CCCCC1)CC2 [Example 84, N-(3-cyano-5-(cyclohexylmethyl)-4,5,6,7-tetrahydrothieno[3,2-c]pyridin-2-yl)-2-(5-sulfamoylthiophen-2-yl)acetamide]	< 100	< 100	< 100	< 100						
CCC1(CC)Cc2sc(NC(=O)Cc3ccc(S(N)(=O)=O)cc3)c(C#N)c2CN1CC1CCCCC1 [Example 76, N-(3-cyano-5-(cyclohexylmethyl)-6,6-diethyl-4,5,6,7-tetrahydrothieno[3,2-c]pyridin-2-yl)-2-(4-sulfamoylphenyl)acetamide]	< 100	< 100	< 100	< 100						
CC1Cc2sc(NC(=O)Cc3ccc(S(=O)(=O)NCC4CCCC4)cc3)c(C#N)c2CN1CC1CCCC1 (stereo not drawn) [Example 61, N-(3-cyano-5-(cyclopentylmethyl)-6-methyl-4,5,6,7-tetrahydrothieno[3,2-c]pyridin-2-yl)-2-(4-(N-(cyclopentylmethyl)sulfamoyl)phenyl)acetamide]	> 1000	> 1000	> 1000	100 to 1000						
CCOc1cc(CC(=O)Nc2sc3c(c2C#N)CN(CC2CC(F)(F)C2)C(C)(C)C3)ccc1S(N)(=O)=O [Example 78, N-(3-cyano-5-((3,3-difluorocyclobutyl)methyl)-6,6-dimethyl-4,5,6,7-tetrahydrothieno[3,2-c]pyridin-2-yl)-2-(3-ethoxy-4-sulfamoylphenyl)acetamide]	100 to 1000	< 100	< 100	< 100						
N#Cc1c(NC(=O)Cc2ccc(S(N)(=O)=O)cc2)sc2c1CCN(Cc1ccc(F)c(F)c1)C2 [Example 105, N-(3-cyano-6-(3,4-difluorobenzyl)-4,5,6,7-tetrahydrothieno[2,3-c]pyridin-2-yl)-2-(4-sulfamoylphenyl)acetamide]	> 1000	100 to 1000	100 to 1000	100 to 1000						
N#Cc1c(NC(=O)Cc2ccc(S(N)(=O)=O)cc2)sc2c1CCN(Cc1ccc(F)cc1)C2 [Example 101, N-(3-cyano-6-(4-fluorobenzyl)-4,5,6,7-tetrahydrothieno[2,3-c]pyridin-2-yl)-2-(4-sulfamoylphenyl)acetamide]	100 to 1000	100 to 1000	< 100	100 to 1000						
CC(O)(c1ccc(CC(=O)Nc2sc3c(c2C#N)CN(CC2CCCCC2)CC3)cc1)C(F)(F)F (stereo not drawn) [Example 8, N-(3-cyano-5-(cyclohexylmethyl)-4,5,6,7-tetrahydrothieno[3,2-c]pyridin-2-yl)-2-(4-(1,1,1-trifluoro-2-hydroxypropan-2-yl)phenyl)acetamide]	> 1000	100 to 1000	100 to 1000	100 to 1000						
CC(c1ccccc1)N1CCc2c(sc(NC(=O)Cc3ccc(S(N)(=O)=O)cc3)c2C#N)C1 (stereo not drawn) [Example 90, N-(3-cyano-6-(1-phenylethyl)-4,5,6,7-tetrahydrothieno[2,3-c]pyridin-2-yl)-2-(4-sulfamoylphenyl)-acetamide hydrochloride]	> 1000	100 to 1000	100 to 1000	100 to 1000						
COc1cc(CC(=O)N(C)c2sc3c(c2C#N)CN(CC2CCCCC2)CC3)ccc1S(N)(=O)=O [Example 48, N-(3-cyano-5-(cyclohexylmethyl)-4,5,6,7-tetrahydrothieno[3,2-c]pyridin-2-yl)-2-(3-methoxy-4-sulfamoylphenyl)-N-methylacetamide]	> 1000	> 1000	> 1000	> 1000						
